Results taken from US6710168B1, “Glycopeptide antibiotics, combinatorial libraries of glycopeptide antibiotics and methods of producing same” (The Trustees of the University of Princeton, priority 1999, dated 2004).
Values after ≈ are worked out from the molar mass of the structure shown.

Tests used:
Format in all cases: cell-based
[1] = tested on: Bacillus cereus (ATCC 11778); experiment: MIC susceptibility test, microdilution with MTT readout; conditions: Bacillus cereus, ATCC11778, read-out: MIC BC
In short: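 Bacillus cereus ATCC® 11778 susceptibility was measured by broth microdilution in 96-well microplates using Cation Adjusted Mueller-Hinton broth. Samples were diluted two-fold from 5 μg/mL over 12 steps. Each well combined 100 μL of cell suspension (10^6 CFU/mL) with 100 μL of antibiotic solution and was incubated at 37° C. for 24 h. Then 50 μL of MTT (1 mg/mL) was added for 30 min, and MIC (μg/mL) was read as the lowest concentration inhibiting growth.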

[2] = tested on: Enterococcus faecalis (ATCC 29212); experiment: as above; conditions: Enterococcus faecalis ATCC29212; read-out: MIC EF
In short: (§1)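 Broth microdilution in cation-adjusted Mueller-Hinton broth, 12-step two-fold series from 5 μg/mL to […], mixed 1:1 with 10^6 CFU/mL cell suspension and incubated 24 h at 37 °C. MTT (1 mg/mL solution) is then added for 30 min (S. aureus, MRSA) or 2 h (E. faecalis strains). MIC = lowest concentration inhibiting growth.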

[3] = tested on: Methicillin resistant Staphylococcus aureus (ATCC 33591); experiment: as above; conditions: ATCC 3359 / ATCC 33591 / MRSA; Staphylococcus aureus ATCC3359, Methicillin resistance; read-out: MIC MRSA
In short: as §1

[4] = tested on: Staphylococcus aureus (ATCC 29213); experiment: as above; conditions: Staphylococcus aureus ATCC29213; read-out: MIC SA
In short: as §1

[5] = tested on: gentamicin, streptmycin, vancomycin resistant Enterococcus faecalis (ATCC 51299); experiment: microbe, parasite or virus in culture; conditions: Enterococcus faecalis, ATCC51299, read-out: MIC VREF
In short: as §1

[6] = tested on: Enterococcus faecium CL5137, VanA; experiment: MIC susceptibility test; conditions: Enterococcus faecium CL5137, VanA; read-out: MIC CL5137
[7] = tested on: Enterococcus faecalis CL5244, VanB; experiment: MIC susceptibility test; conditions: Enterococcus faecalis CL5244, VanB; read-out: MIC CL5244
In short: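 MTT-based broth microdilution in cation-adjusted Mueller-Hinton broth; two-fold 12-step dilutions […], inoculum 10^6 CFU/mL, 37° C for 24 h.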

Question: Which results are given for CCCCCCCCCCNC1(C)CC(OC2C(Oc3c4cc5cc3Oc3ccc(cc3Cl)[C@@H](O)[C@@H](NC(=O)[C@H](CC(C)C)NC)C(=O)N[C@@H](CC(N)=O)C(=O)N[C@H]5C(=O)NC3C(=O)N[C@H](C(=O)N[C@@H](C(=O)O)c5cc(O)cc(O)c5-c5cc3ccc5O)[C@H](O)c3ccc(c(Cl)c3)O4)OC(CSc3nc4cc(Cl)ccc4s3)C(O)C2O)OC(C)C1O (stereo partly drawn) [LXXX, N-Decylvancosamine-glucose-C6-2-thio-5-chlorobenzothiazole Vancomycin]?
Answer: MIC [1]: 5 µg/mL (≈ 2.82 µM); MIC [2]: 1.3 µg/mL (≈ 0.733 µM); MIC [3]: 5 µg/mL (≈ 2.82 µM); MIC [4]: > 5 µg/mL; MIC [5]: 2.5 µg/mL (≈ 1.41 µM); MIC [6]: 50 µg/mL (≈ 28.2 µM); MIC [7]: 2.4 µg/mL (≈ 1.35 µM)

Question: How did the MIC [1] turn out when CCCCCCCCCCNC1(C)CC(OC2C(Oc3c4cc5cc3Oc3ccc(cc3Cl)[C@@H](O)[C@@H](NC(=O)[C@H](CC(C)C)NC)C(=O)N[C@@H](CC(N)=O)C(=O)N[C@H]5C(=O)NC3C(=O)N[C@H](C(=O)N[C@@H](C(=O)O)c5cc(O)cc(O)c5-c5cc3ccc5O)[C@H](O)c3ccc(c(Cl)c3)O4)OC(CSc3nc(-c4ccccc4)c(-c4ccccc4)o3)C(O)C2O)OC(C)C1O (stereo partly drawn) [LXXXII, N-Decylvancosamine-glucose-C6-2-thio-4,5-diphenyloxazole Vancomycin] was run?
Answer: > 5 µg/mL

Question: And the MIC [2]?
Answer: > 5 µg/mL

Question: What about the MIC [3] of the same compound?
Answer: > 5 µg/mL

Question: And the MIC [4]?
Answer: > 5 µg/mL

Question: And the MIC [5]?
Answer: > 5 µg/mL

Question: What about the MIC [6] of the same compound?
Answer: > 50 µg/mL

Question: What about the MIC [7] of the same compound?
Answer: 13 µg/mL (≈ 7.12 µM)

Question: Which results are given for CN[C@@H](CC(C)C)C(=O)N[C@H]1C(=O)N[C@@H](CC(N)=O)C(=O)N[C@H]2C(=O)NC3C(=O)N[C@H](C(=O)N[C@@H](C(=O)O)c4cc(O)cc(O)c4-c4cc3ccc4O)[C@H](O)c3ccc(c(Cl)c3)Oc3cc2cc(c3OC2OC(CSc3nnc(N)s3)C(O)C(O)C2OC2CC(C)(NCc3ccc(-c4ccc(Cl)cc4)cc3)C(O)C(C)O2)Oc2ccc(cc2Cl)[C@H]1O (stereo partly drawn) [LXXXIII, N-4-(4-Chlorophenyl)benzylvancosamine-glucose-C6-2-thio-5-amino-1,3,4-thiadiazole Vancomycin]?
Answer: MIC [1]: 0.32 µg/mL (≈ 0.181 µM); MIC [2]: 0.16 µg/mL (≈ 0.0906 µM); MIC [3]: 0.48 µg/mL (≈ 0.272 µM); MIC [4]: 0.48 µg/mL (≈ 0.272 µM); MIC [5]: 0.32 µg/mL (≈ 0.181 µM); MIC [6]: 3.2 µg/mL (≈ 1.81 µM); MIC [7]: 0.2 µg/mL (≈ 0.113 µM)

Question: How did the MIC [1] turn out when CN[C@@H](CC(C)C)C(=O)N[C@H]1C(=O)N[C@@H](CC(N)=O)C(=O)N[C@H]2C(=O)NC3C(=O)N[C@H](C(=O)N[C@@H](C(=O)O)c4cc(O)cc(O)c4-c4cc3ccc4O)[C@H](O)c3ccc(c(Cl)c3)Oc3cc2cc(c3OC2OC(CSc3nnc(NN)n3N)C(O)C(O)C2OC2CC(C)(NCc3ccc(-c4ccc(Cl)cc4)cc3)C(O)C(C)O2)Oc2ccc(cc2Cl)[C@H]1O (stereo partly drawn) [LXXXIV, N-4-(4-Chlorophenyl)benzylvancosamine-glucose-C6-5-thio-4-amino-3-hydrazino-1,2,4-triazole Vancomycin] was run?
Answer: 0.08 µg/mL (≈ 0.045 µM)

Question: What about the MIC [2] of the same compound?
Answer: 0.12 µg/mL (≈ 0.0675 µM)

Question: What about the MIC [3] of the same compound?
Answer: 0.48 µg/mL (≈ 0.27 µM)

Question: What about the MIC [4] of the same compound?
Answer: 0.63 µg/mL (≈ 0.354 µM)

Question: What about the MIC [5] of the same compound?
Answer: 0.16 µg/mL (≈ 0.09 µM)

Question: And the MIC [6]?
Answer: 6.3 µg/mL (≈ 3.54 µM)

Question: And the MIC [7]?
Answer: 0.2 µg/mL (≈ 0.112 µM)

Question: With CN[C@@H](CC(C)C)C(=O)N[C@H]1C(=O)N[C@@H](CC(N)=O)C(=O)N[C@H]2C(=O)NC3C(=O)N[C@H](C(=O)N[C@@H](C(=O)O)c4cc(O)cc(O)c4-c4cc3ccc4O)[C@H](O)c3ccc(c(Cl)c3)Oc3cc2cc(c3OC2OC(CSc3nc(C)cc(O)n3)C(O)C(O)C2OC2CC(C)(NCc3ccc(-c4ccc(Cl)cc4)cc3)C(O)C(C)O2)Oc2ccc(cc2Cl)[C@H]1O (stereo partly drawn) [LXXXV, N-4-(4-Chlorophenyl)benzylvancosamine-glucose-C6-2-thio-4-hydroxy-6-methylpyrimidine Vancomycin] as the compound, how does the MIC [1] read?
Answer: 1.3 µg/mL (≈ 0.733 µM)

Question: And the MIC [2]?
Answer: 0.32 µg/mL (≈ 0.18 µM)

Question: What about the MIC [3] of the same compound?
Answer: 1.3 µg/mL (≈ 0.733 µM)

Question: What about the MIC [4] of the same compound?
Answer: 1.9 µg/mL (≈ 1.07 µM)

Question: What about the MIC [5] of the same compound?
Answer: 0.32 µg/mL (≈ 0.18 µM)

Question: What about the MIC [6] of the same compound?
Answer: 6.3 µg/mL (≈ 3.55 µM)

Question: And the MIC [7]?
Answer: 0.4 µg/mL (≈ 0.225 µM)

Question: Which MIC [1] does the source give for CN[C@@H](CC(C)C)C(=O)N[C@H]1C(=O)N[C@@H](CC(N)=O)C(=O)N[C@H]2C(=O)NC3C(=O)N[C@H](C(=O)N[C@@H](C(=O)O)c4cc(O)cc(O)c4-c4cc3ccc4O)[C@H](O)c3ccc(c(Cl)c3)Oc3cc2cc(c3OC2OC(CSc3nnc(C)c(O)n3)C(O)C(O)C2OC2CC(C)(NCc3ccc(-c4ccc(Cl)cc4)cc3)C(O)C(C)O2)Oc2ccc(cc2Cl)[C@H]1O (stereo partly drawn) [LXXXVI, N-4-(4-Chlorophenyl)benzylvancosamine-glucose-C6-2-thio-6-azathymine Vancomycin] here?
Answer: 0.32 µg/mL (≈ 0.18 µM)

Question: And the MIC [2]?
Answer: 0.12 µg/mL (≈ 0.0676 µM)

Question: And the MIC [3]?
Answer: 1 µg/mL (≈ 0.563 µM)

Question: What about the MIC [4] of the same compound?
Answer: 1 µg/mL (≈ 0.563 µM)

Question: What about the MIC [5] of the same compound?
Answer: 0.16 µg/mL (≈ 0.0901 µM)

Question: And the MIC [6]?
Answer: 3.2 µg/mL (≈ 1.8 µM)

Question: What about the MIC [7] of the same compound?
Answer: 0.4 µg/mL (≈ 0.225 µM)
